The record followed here is PubChem BioAssay AID720632 (Broad Institute, 2013).

Active and inactive are the calls of the source. How the calls were made is not given here.

The target in this test is Caspase-6 (Homo sapiens) (UniProt P55212). As to the kind of experiment: human caspase-6 inhibitors, dose response, biochemical, VEID-R110 fluorescence, cherry-pick (AID 720632). The note with it: caspase-6, VEID-R110 fluorogenic substrate.
Chain of Caspase-6 (Homo sapiens) (P55212 24-179 limits assumed): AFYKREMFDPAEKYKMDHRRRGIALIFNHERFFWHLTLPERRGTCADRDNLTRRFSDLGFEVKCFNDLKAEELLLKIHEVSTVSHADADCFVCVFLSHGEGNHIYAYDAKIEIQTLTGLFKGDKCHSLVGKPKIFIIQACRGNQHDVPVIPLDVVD
Chain of Caspase-6 (Homo sapiens) (P55212 194-293 limits assumed): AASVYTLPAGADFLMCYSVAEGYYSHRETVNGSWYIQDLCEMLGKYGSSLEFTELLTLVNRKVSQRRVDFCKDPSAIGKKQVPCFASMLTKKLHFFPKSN

For `Cc1cc(C)cc(N(CC(=O)NC(C)C)C(=O)CCC(=O)Nc2ccccn2)c1`, the “activity change, negative = inhibition” value (at 26 µM (top of the series)) was “inactive”.

Consider `COc1cc(/C=C2\SC(=O)NC2=O)ccc1Oc1ccc([N+](=O)[O-])cc1[N+](=O)[O-]`, for which the “activity change, negative = inhibition” value (at 26 µM (top of the series)) is “inactive”.

On to `CCN(CC)c1nc(N)c2c(N)nc(OC)cc2c1C#N`, for which, for the setting “at 26 µM (top of the series)”, the “activity change, negative = inhibition” value is “inactive”.

As to `COc1ccccc1NC(=O)C(C)OC(=O)CCC1CCCCC1` (stereo not drawn), the “activity change, negative = inhibition” value (at 26 µM (top of the series)) is “inactive”.

In the case of `O=C(N/N=C/c1oc(O)c2ccccc12)c1ccccc1O`, the “activity change, negative = inhibition” value (at 26 µM (top of the series)) is “inactive”.

On to `CO[C@@H]1CN(C)C(=O)c2ccc(NC(=O)c3ccccc3)cc2OC[C@H](C)N(C(=O)C2CC2)C[C@H]1C`, for which the “activity change, negative = inhibition” value (at 26 µM (top of the series)) was “inactive”.

Consider `O=C(N/N=C/c1ccc(O)cc1O)C(=O)N/N=C/c1ccc(O)cc1O`, for which, for the setting “at 26 µM (top of the series)”, the “activity change, negative = inhibition” value is “inactive”.

For the compound `CCCN1C[C@H](C)[C@H](OC)CN(C)C(=O)c2ccc(NC(=O)c3ccccc3)cc2OC[C@H]1C`, the “activity change, negative = inhibition” value (at 26 µM (top of the series)) was “inactive”.

As for `Cc1cc(-n2nnc3ccccc32)nc2ccccc12`, the “activity change, negative = inhibition” value (at 26 µM (top of the series)) was “inactive”.

Regarding `CN(C)CCCN(C(=O)c1ccc([N+](=O)[O-])s1)c1nc2cc3c(cc2s1)OCCO3`, the “activity change, negative = inhibition” value (at 8 µM (top of the series)) was “inactive”.

Take `COc1ccccc1C(=O)Nc1ccc2c(c1)OC[C@@H](C)N(CC1CC1)C[C@@H](C)[C@H](OC)CN(C)C2=O`: for the setting “at 23.5 µM (top of the series)”, the “activity change, negative = inhibition” value was “inactive”.

On to `CC(=O)Nc1cccc(NC(=O)c2cc([N+](=O)[O-])ccc2N2CCCCC2)c1`, for which the “activity change, negative = inhibition” value (at 26 µM (top of the series)) is “inactive”.

`CC(=O)Nc1ccc(C=NNc2ccc([N+](=O)[O-])cc2S(=O)(=O)Nc2ccccc2C(=O)O)cc1`: the “activity change, negative = inhibition” value (at 26 µM (top of the series)) was “inactive”.

For the compound `CCCC(=O)Nc1ccc2c(c1)OC[C@@H](C)NC[C@H](C)[C@H](OC)CN(C)C2=O`, the “activity change, negative = inhibition” value (at 26 µM (top of the series)) is “inactive”.

For the compound `O=C(CNC(=O)Cc1ccccc1)NCc1cccs1`, the “activity change, negative = inhibition” value (at 26 µM (top of the series)) is “inactive”.

As for `COc1cc2[nH]c(Cl)c([N+](=O)[O-])c2cc1OC`, the “activity change, negative = inhibition” value (at 26 µM (top of the series)) was “inactive”.

On to `COc1ccc(CCNC(=O)c2c(C)noc2C)cc1`, for which, where the note is “at 26 µM (top of the series)”, the “activity change, negative = inhibition” value is “inactive”.

For `O=C(NNS(=O)(=O)c1ccc(F)cc1)c1ccccc1F`, the “activity change, negative = inhibition” value (at 26 µM (top of the series)) is “inactive”.

Consider `Cc1cc(C)nc(N2CCN(S(=O)(=O)c3ccc(F)cc3)CC2)n1`, for which, for the setting “at 26 µM (top of the series)”, the “activity change, negative = inhibition” value was “inactive”.

On to `COc1ccc(OC)c(N(CC(=O)Nc2ccccc2)S(C)(=O)=O)c1`, for which, for the setting “at 26 µM (top of the series)”, the “activity change, negative = inhibition” value was “inactive”.

Regarding `Oc1cc(Nc2cccnc2)cc2cccnc12`, for the setting “at 26 µM (top of the series)”, the “activity change, negative = inhibition” value is “inactive”.

`CCC(CC)COC(=O)C1=C(C)NC(=O)NC1c1cc(OC)ccc1OC` (stereo not drawn): the “activity change, negative = inhibition” value (at 26 µM (top of the series)) was “inactive”.

On to `CO[C@H]1CN(C)C(=O)c2ccc(NC(=O)C3CC3)cc2OC[C@@H](C)N(Cc2cccc(F)c2)C[C@H]1C`, for which the “activity change, negative = inhibition” value (at 26 µM (top of the series)) is “inactive”.

Regarding `N#CC1=C(N)Oc2cc(N)ccc2C1c1ccccc1` (stereo not drawn), under “at 26 µM (top of the series)”, the “activity change, negative = inhibition” value was “inactive”.

Consider `Cn1cc(C(CC(=O)O)C(=O)O)c2ccccc21` (stereo not drawn), for which, where the note is “at 26 µM (top of the series)”, the “activity change, negative = inhibition” value was “inactive”.

Consider `CN1N=C(C(C)(C)C)CSC1=Nc1ccccc1`, for which the “activity change, negative = inhibition” value (at 26 µM (top of the series)) was “inactive”.

With `O=C(C1CCN(c2ccc(N3CCOCC3)nn2)CC1)N1CCc2ccccc2C1`, where the note is “at 26 µM (top of the series)”, the “activity change, negative = inhibition” value was “inactive”.

Turning to `S=c1[nH]cc(-c2ccccc2)n1-c1cccc(Cl)c1`, the “activity change, negative = inhibition” value (at 26 µM (top of the series)) is “inactive”.

On to `Cc1nc2ccccc2n1CCOc1ccccc1`, for which, where the note is “at 26 µM (top of the series)”, the “activity change, negative = inhibition” value is “inactive”.

For the compound `O=C(NC[C@@H]1CC[C@@H]2[C@@H](CN2S(=O)(=O)c2ccccc2[N+](=O)[O-])O1)C1CCOCC1`, under “at 8 µM (top of the series)”, the “activity change, negative = inhibition” value is “inactive”.

On to `O=C(NCc1ccncc1)c1ccc(OCc2ccccc2)cc1`, for which, where the note is “at 26 µM (top of the series)”, the “activity change, negative = inhibition” value was “inactive”.

`C=CCNc1nc(Nc2cc(Cl)ccc2OC)nc(OC)n1`: the “activity change, negative = inhibition” value (at 26 µM (top of the series)) was “inactive”.

Take `COc1cccc(NC(=O)CC(=O)c2ccc([N+](=O)[O-])cc2)c1`: the “activity change, negative = inhibition” value (at 26 µM (top of the series)) was “inactive”.

For `O=C1[C@H]2[C@@H](c3ccccc3)N[C@]3(CCCN(CC4CCCCC4)C3=O)[C@H]2C(=O)N1Cc1ccccc1`, where the note is “at 26 µM (top of the series)”, the “activity change, negative = inhibition” value was “inactive”.

`Cc1cccc(-n2c(C)nc3cc(C(=O)NCCN4CCOCC4)ccc32)c1`: the “activity change, negative = inhibition” value (at 26 µM (top of the series)) was “inactive”.

With `O=C(Oc1ccc(Nc2ncnc3ccccc23)cc1)c1cccnc1`, under “at 26 µM (top of the series)”, the “activity change, negative = inhibition” value was “inactive”.

Take `O=C1Cc2cc(S(=O)(=O)N3CCN(c4ccc(C(=O)O)cc4)CC3)ccc2N1`: where the note is “at 26 µM (top of the series)”, the “activity change, negative = inhibition” value was “inactive”.

Turning to `Cc1ccc(N2C(=O)Cc3ccccc3C2=O)cc1`, the “activity change, negative = inhibition” value (at 26 µM (top of the series)) was “inactive”.
